Measurements from ChEMBL document CHEMBL1131530, “Synthesis and biological activities of tricyclic conformationally restricted tetrahydropyrido annulated furo[2,3-d]pyrimidines as inhibitors of dihydrofolate reductases” (J Med Chem, 1998).

T1: Dihydrofolate reductase (Rattus norvegicus, UniProt Q920D2)
T1 sequence (Q920D2 whole entry): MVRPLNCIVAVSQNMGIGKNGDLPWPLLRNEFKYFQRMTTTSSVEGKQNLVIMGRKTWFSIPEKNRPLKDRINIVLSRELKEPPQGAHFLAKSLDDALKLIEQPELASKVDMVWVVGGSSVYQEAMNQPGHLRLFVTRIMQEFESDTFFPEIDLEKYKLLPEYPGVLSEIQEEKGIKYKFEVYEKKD

T2: Dihydrofolate reductase (Pneumocystis carinii, UniProt P16184)
T2 sequence (P16184 whole entry): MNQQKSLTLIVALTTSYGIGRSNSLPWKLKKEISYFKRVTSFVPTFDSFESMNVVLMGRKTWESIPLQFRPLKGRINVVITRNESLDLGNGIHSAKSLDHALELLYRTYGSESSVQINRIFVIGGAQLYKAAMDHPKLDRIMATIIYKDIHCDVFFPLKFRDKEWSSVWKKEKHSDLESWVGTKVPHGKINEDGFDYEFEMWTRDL

T3: Bifunctional dihydrofolate reductase-thymidylate synthase (Toxoplasma gondii, UniProt Q07422)
T3 sequence (Q07422 whole entry): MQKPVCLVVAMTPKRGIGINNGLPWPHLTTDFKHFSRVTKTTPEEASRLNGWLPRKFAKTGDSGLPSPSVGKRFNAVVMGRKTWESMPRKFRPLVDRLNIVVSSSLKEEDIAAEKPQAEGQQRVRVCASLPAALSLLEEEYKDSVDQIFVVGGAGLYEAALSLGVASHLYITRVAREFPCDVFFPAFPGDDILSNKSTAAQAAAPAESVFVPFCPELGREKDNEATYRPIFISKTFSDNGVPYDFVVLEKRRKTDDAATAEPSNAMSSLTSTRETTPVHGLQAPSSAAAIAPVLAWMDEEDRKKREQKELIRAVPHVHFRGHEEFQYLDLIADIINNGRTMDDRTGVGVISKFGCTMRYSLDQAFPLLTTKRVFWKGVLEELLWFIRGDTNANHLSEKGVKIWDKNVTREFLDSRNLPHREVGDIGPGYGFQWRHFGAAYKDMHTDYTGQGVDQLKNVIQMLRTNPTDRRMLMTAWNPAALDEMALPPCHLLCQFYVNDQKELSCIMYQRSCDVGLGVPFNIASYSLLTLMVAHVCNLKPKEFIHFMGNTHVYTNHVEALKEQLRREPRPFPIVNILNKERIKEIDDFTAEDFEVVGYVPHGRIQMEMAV

T4: Dihydrofolate reductase (Mycobacterium avium, UniProt O30463)
T4 sequence (O30463 whole entry): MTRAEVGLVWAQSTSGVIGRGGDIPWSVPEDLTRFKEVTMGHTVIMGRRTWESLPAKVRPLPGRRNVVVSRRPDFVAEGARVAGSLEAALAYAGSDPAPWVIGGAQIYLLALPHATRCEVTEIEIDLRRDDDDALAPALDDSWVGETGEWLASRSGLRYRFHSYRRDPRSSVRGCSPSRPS

T5: Folylpolyglutamate synthase, mitochondrial (Homo sapiens) (UniProt Q05932)
T5 sequence (whole entry): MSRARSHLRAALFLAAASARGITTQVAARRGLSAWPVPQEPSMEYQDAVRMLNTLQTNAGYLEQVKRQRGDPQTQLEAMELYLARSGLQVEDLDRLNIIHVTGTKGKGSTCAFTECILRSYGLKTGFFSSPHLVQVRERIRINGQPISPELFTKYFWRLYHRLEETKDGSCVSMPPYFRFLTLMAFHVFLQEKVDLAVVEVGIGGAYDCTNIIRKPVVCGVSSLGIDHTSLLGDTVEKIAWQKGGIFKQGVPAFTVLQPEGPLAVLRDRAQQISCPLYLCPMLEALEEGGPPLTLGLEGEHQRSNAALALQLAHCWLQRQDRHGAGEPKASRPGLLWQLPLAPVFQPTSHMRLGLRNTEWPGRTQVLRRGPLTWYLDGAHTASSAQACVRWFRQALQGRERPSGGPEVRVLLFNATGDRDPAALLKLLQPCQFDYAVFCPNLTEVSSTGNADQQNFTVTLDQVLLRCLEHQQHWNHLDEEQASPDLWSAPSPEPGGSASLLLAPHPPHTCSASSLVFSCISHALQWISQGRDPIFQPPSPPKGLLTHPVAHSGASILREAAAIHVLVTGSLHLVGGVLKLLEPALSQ

B1: Folylpolyglutamate synthase, mitochondrial (Homo sapiens), Q05932 (protein)
chain: T5 sequence (whole entry)

Key:
[1] = Selectivity for dihydrofolate reductase enzyme in rat liver Toxoplasma gondii
[2] = Selectivity for dihydrofolate reductase enzyme in rat liver and Pneumocystis carinii
Dihydrofolate reductase [3] = biological target: T1, Dihydrofolate reductase
Description: Inhibition of Dihydrofolate reductase of rat liver

Dihydrofolate reductase [4] = biological target: T2, Dihydrofolate reductase
Description: Inhibition of Pneumocystis carinii dihydrofolate reductase

[5] = biological target: T3, Bifunctional dihydrofolate reductase-thymidylate synthase
Description: Inhibition of Toxoplasma gondii Dihydrofolate reductase

Dihydrofolate reductase [6] = biological target: T4, Dihydrofolate reductase; assay: Inhibitory concentration was evaluated against […] Dihydrofolate reductase enzyme in Mycobacterium avium.
Homo sapiens = species: Homo sapiens; assay: Growth inhibition was measured for inhibition of growth in FaDu human squamous cell carcinoma of the head and neck.; assay type: functional
[7] = biological target: T5, Folylpolyglutamate synthase, mitochondrial (Homo sapiens); assay: Activity of substrate for human FPGS was evaluated and compared to that of aminopterin (AMT)
CCRF-CEM [8] = assay: Growth inhibition was measured as for inhibition of growth in CCRF-CEM cells.; assay type: functional, cell-based; settings: Homo sapiens
CCRF-CEM [9] = assay: Growth inhibition was measured for inhibition of growth in CCRF-CEM subline resistant to MTX solely as a result of a 20-fold increase in wild-type DHFR protein and activity.; assay type: functional, cell-based; settings: Homo sapiens
CCRF-CEM [10] = assay: Growth inhibition was measured for inhibition of growth in CCRF-CEM sublines resistant to MTX solely as a result of decreased polyglutamation.; assay type: functional, cell-based; settings: Homo sapiens
[11] = substrate: Nc1nc(N)c2c3c(oc2n1)CN(Cc1ccc(C(=O)N[C@@H](CCC(=O)O)C(=O)O)cc1)CC3; assay: Binding affinity was evaluated on CCRF-CEM human leukemia cell folyl-poly-glutamate synthetase.; assay type: cell-based

Row | Molecule | Selectivity ratio [1] | Selectivity ratio [2] | IC50 (Dihydrofolate reductase [3]) | IC50 (Dihydrofolate reductase [4]) | IC50 [5] | IC50 (Dihydrofolate reductase [6]) | other results
1 | CN(Cc1coc2nc(N)nc(N)c12)c1ccc(C(=O)NC(CCC(=O)O)C(=O)O)cc1 (configuration not stated) | 0.021 | 12.2 | – | – | – | – | –
2 | Nc1nc(N)c2c(CNc3ccc(C(=O)NC(CCC(=O)O)C(=O)O)cc3)coc2n1 (configuration not stated) | 1.9 | 1.4 | – | – | – | – | –
3 | Nc1nc(N)c2c3c(oc2n1)CN(Cc1ccccc1)CC3 | > 10 | – | 15 µM | > 9 µM | 1.4 µM | > 15 µM | –
4 | CN(Cc1cnc2nc(N)nc(N)c2n1)c1ccc(C(=O)N[C@@H](CCC(=O)O)C(=O)O)cc1 [METHOTREXATE] | – | – | – | – | – | – | EC50 (Homo sapiens): 0.0172 µM
5 | Nc1nc(N)c2c3c(oc2n1)CN(Cc1ccc(Cl)cc1Cl)CC3 | 3.9 | 2.3 | 50.9 µM | 22.6 µM | 13.1 µM | > 50 µM | –
6 | COc1cc(CN2CCc3c(oc4nc(N)nc(N)c34)C2)cc(OC)c1OC | – | – | > 35 µM | > 35 µM | > 35 µM | 12.1 µM | –
7 | COc1cc(CN2CCc3c(oc4nc(N)nc(N)c34)C2)cc(OC)c1 | – | – | 22.8 µM | > 22.8 µM | > 20.4 µM | > 20 µM | –
8 | Nc1nc(N)c2nc(CNc3ccc(C(=O)N[C@@H](CCC(=O)O)C(=O)O)cc3)cnc2n1 | – | – | – | – | – | – | Relative Vmax [7]: 1
9 | Nc1nc(N)c2c3c(oc2n1)CN(Cc1ccc(Cl)c(Cl)c1)CC3 | – | 0.9 | 20.6 µM | 24.1 µM | 22.3 µM | > 20 µM | –
10 | Nc1nc(N)c2c3c(oc2n1)CN(Cc1ccc(C(=O)N[C@@H](CCC(=O)O)C(=O)O)cc1)CC3 | 4 | 7.9 | 85.8 µM | – | 21.5 µM | 0.97 µM | Relative Vmax [7]: 0.29; EC50 (Homo sapiens): > 100 µM; EC50 (CCRF-CEM [8]): 3.6 µM; EC50 (CCRF-CEM [9]): 10.3 µM; EC50 (CCRF-CEM [10]): > 50 µM
11 | Nc1nc(N)c2c3c(oc2n1)CN(Cc1c(Cl)cccc1Cl)CC3 | 2.5 | 2 | 81.2 µM | 40.5 µM | 31.7 µM | > 81.2 µM | –
12 | B1 | – | – | – | – | – | – | Km [11]: 6.2 µM
